Among the test systems are KM12 colon; KM20L2 colon; SNB-19 CNS; DLD-1 colon; SK-OV-3 ovarian; RPMI-8226 leukemia; SNB-78 CNS; HS 578T breast; T-47D breast; MDA-MB-435.
Holding throughout (test): NCI anticancer screen, dose series, 48 h

Results on 19 molecules are retold here after PubChem BioAssay (NCI).

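Protocol summary: plate cells (96-well), add compound at 5 concentrations, incubate 48 h, interpolate endpoints linearly. At the GI50, growth is halved. Definition used: TGI = concentration required for complete inhibition of growth.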

On to `Cc1cc(N(CCC#N)CCC#N)ccc1/C=C/C(=O)Nc1cccc(Cl)c1`, for which the TGI in the assay on KM12 colon, in the assay on KM20L2 colon, in the assay on SNB-19 CNS, with DLD-1 colon, in the assay with SK-OV-3 ovarian and with RPMI-8226 leukemia was above 100 µM each time.

Consider `Cc1c(C#N)c(=O)[nH]c(=O)n1CCN1CCN(C(=O)NCCCCCCNC(=O)N2CCN(CCn3c(C)c(C#N)c(=O)[nH]c3=O)CC2)CC1`, for which the TGI in the assay with KM20L2 colon, in the assay with SNB-19 CNS, with DLD-1 colon, in the assay on SNB-78 CNS, in the assay with SK-OV-3 ovarian and in the assay with RPMI-8226 leukemia was above 100 µM throughout.

Regarding `C=C1COC(/C=C(\C)CC/C=C(\C)CCl)C1` (configuration not stated), the TGI in the assay on KM12 colon, in the assay with KM20L2 colon, in the assay with SNB-19 CNS, in the assay on DLD-1 colon, in the assay with SNB-78 CNS and in the assay with SK-OV-3 ovarian was above 100 µM throughout. In addition, in the assay with RPMI-8226 leukemia, the TGI is above 100 µM.

On to `CC(=O)OC1CCn2nnc(CO[Si](C)(C)C(C)(C)C)c21` (configuration not stated), for which the TGI in the assay with KM12 colon, in the assay with KM20L2 colon, in the assay with SNB-19 CNS, in the assay with DLD-1 colon, in the assay with SK-OV-3 ovarian and in the assay on RPMI-8226 leukemia was above 100 µM each time.

As to `CCOC(=O)C(C)(c1cn(C)c2ccccc12)c1cn(C)c2ccccc12`, the TGI in the assay with KM12 colon, in the assay with KM20L2 colon, with DLD-1 colon, in the assay with SNB-78 CNS, in the assay with SK-OV-3 ovarian and with RPMI-8226 leukemia was above 100 µM in each case.

Regarding `C=CCc1cc(OC)c2c(c1)C(O)CC(c1ccccc1)O2` (configuration not stated), the TGI in the assay with KM12 colon, in the assay on KM20L2 colon, with SNB-19 CNS, in the assay on DLD-1 colon, in the assay with SNB-78 CNS and with SK-OV-3 ovarian was above 100 µM each time.

Turning to `CCOC(=O)C1Oc2ccc([N+](=O)[O-])c3c2C1(O)CCC3` (configuration not stated), the TGI with KM12 colon, in the assay on SNB-19 CNS, with DLD-1 colon, with SNB-78 CNS, with SK-OV-3 ovarian and in the assay on RPMI-8226 leukemia was above 100 µM in each case.

`C[C@]12CCC3[C@@H](CC[C@@H]4c5nonc5CC[C@]34C)C1CCC(=O)N2` (some centres not stated): the TGI with KM12 colon, with KM20L2 colon, in the assay with HS 578T breast, in the assay on SNB-19 CNS, with T-47D breast and in the assay with SNB-78 CNS was above 100 µM throughout. For the same molecule, the TGI in the assay with SK-OV-3 ovarian, with RPMI-8226 leukemia and in the assay on MDA-MB-435 was above 100 µM in each case. The GI50 with HS 578T breast, with T-47D breast and in the assay with MDA-MB-435 was above 100 µM in each case.

Turning to `Cc1cc2c(C)n(Cc3ccc(Cl)cc3Cl)nc2c(C#N)c1C`, the TGI is above 100 µM in the assay with KM12 colon; above 56.9 µM in the assay on KM20L2 colon; 45.7 µM in the assay with SNB-19 CNS; above 100 µM with DLD-1 colon; above 76.4 µM with SNB-78 CNS; 47.4 µM in the assay with SK-OV-3 ovarian. Also, in the assay with RPMI-8226 leukemia, the TGI is above 100 µM.

In the case of `C[Si](C)(C)OC1(C#N)C2C3CC4C2C(=O)C2C4C3C21` (configuration not stated), the TGI with KM12 colon, in the assay on KM20L2 colon, with SNB-19 CNS, with DLD-1 colon, in the assay with SNB-78 CNS and in the assay on SK-OV-3 ovarian was above 100 µM throughout. Moreover, the TGI with RPMI-8226 leukemia is above 100 µM.

Turning to `CCOc1ccc2nc(NC(=O)c3c/c(=N\NC(=O)C[N+](C)(C)C)c4ccc(O)cc4o3)sc2c1`, the TGI is 19.2 µM with KM12 colon; 10 µM in the assay on KM20L2 colon; 17.8 µM in the assay with SNB-19 CNS; 13.4 µM with DLD-1 colon; 15.5 µM in the assay with SNB-78 CNS; 25.2 µM in the assay with SK-OV-3 ovarian. In the assay on RPMI-8226 leukemia, the TGI was 8.31 µM.

In the case of `O=S(=O)(c1ccccc1)C(CN1CCCCC1)S(=O)(=O)c1ccccc1`, the TGI in the assay on KM12 colon, in the assay with KM20L2 colon, with SNB-19 CNS, with DLD-1 colon, in the assay on SK-OV-3 ovarian and with RPMI-8226 leukemia was above 100 µM throughout.

Turning to `CCOC(=O)c1oc2ccc(OC)c3c2c1CCC3`, the TGI in the assay on KM12 colon, in the assay on SNB-19 CNS, in the assay with DLD-1 colon, in the assay with SNB-78 CNS, in the assay with SK-OV-3 ovarian and with RPMI-8226 leukemia was above 100 µM in each case.

As for `COc1cc(C(=O)C/C(CCC(=O)Nc2ccccc2[N+](=O)[O-])=N\NC(=O)CC#N)ccc1O`, the TGI with KM12 colon, in the assay on KM20L2 colon, in the assay on SNB-19 CNS, in the assay with DLD-1 colon, with SK-OV-3 ovarian and in the assay with RPMI-8226 leukemia was above 100 µM in each case.

As to `Brc1cccc(C2SCc3nc4ccccc4n32)c1` (configuration not stated), the TGI with KM12 colon was 42.7 µM; in the assay with DLD-1 colon it was 29.9 µM; with SNB-78 CNS, 99.2 µM; in the assay with SK-OV-3 ovarian, 65 µM; with RPMI-8226 leukemia, above 100 µM.

In the case of `Cn1cnc2nc(Cl)nc(NC(C)(C)C(C)(C)O)c21`, the TGI with KM12 colon, in the assay with KM20L2 colon, in the assay on SNB-19 CNS, with DLD-1 colon, in the assay on SNB-78 CNS and in the assay on SK-OV-3 ovarian was above 100 µM in each case. The TGI in the assay with RPMI-8226 leukemia was above 100 µM.

`CCCCCCc1cc(C(=O)Nc2cccc(C(F)(F)F)c2)nc(N)n1`: the TGI in the assay on KM12 colon, in the assay on KM20L2 colon, with SNB-19 CNS, with DLD-1 colon, with SNB-78 CNS and in the assay on SK-OV-3 ovarian was above 100 µM each time. The TGI in the assay on RPMI-8226 leukemia was above 100 µM.

On to `c1ccc(SC(CCCCC(Sc2ccccc2)Sc2ccccc2)Sc2ccccc2)cc1`, for which the TGI in the assay with KM12 colon, with KM20L2 colon, in the assay on SNB-19 CNS, in the assay with DLD-1 colon, in the assay with SNB-78 CNS and in the assay with SK-OV-3 ovarian was above 100 µM throughout. Also, the TGI with RPMI-8226 leukemia was above 100 µM.

Regarding `O=C(O)C1(P(=O)(O)O)CC1`, the TGI with KM12 colon, in the assay on KM20L2 colon, in the assay with SNB-19 CNS, with DLD-1 colon, with SNB-78 CNS and with SK-OV-3 ovarian was above 100 µM in each case. This molecule came in with a TGI with RPMI-8226 leukemia above 100 µM.
